Data taken from US20080275076A1, “Pharmaceutical Compositions Comprising Sirolimus and/or an Analogue Thereof” (priority 2005, published 2008).
Like-named read-outs stand apart in the source and are kept apart here.

Assays:
[1] = Solubility of sirolimus in various vehicles at 70° C. (visual inspection); type: physicochemical
Procedure: In the following table is given the solubility of sirolimus in various vehicles (please note that the solubility is determined by visual inspection): […]

[2] = cited from earlier work

Which “% Sirolimus dissolved 70° C.” value ([1]; vehicle Gelucire 44/14) does the source give for `CO[C@H]1C[C@@H]2CC[C@@H](C)[C@@](O)(O2)C(=O)C(=O)N2CCCC[C@H]2C(=O)O[C@H]([C@H](C)C[C@@H]2CC[C@@H](O)[C@H](OC)C2)CC(=O)[C@H](C)/C=C(\C)[C@@H](O)[C@@H](OC)C(=O)[C@H](C)C[C@H](C)/C=C/C=C/C=C/1C` [Sirolimus] here?
The value was 2.5%.

What about the “% Sirolimus dissolved 70° C.” value ([1]; vehicle Monomuls 90 35) of the same molecule?
Its value is 2.2%.

What about the “% Sirolimus dissolved 70° C.” value ([1]; vehicle Monomuls 90L12) of the same molecule?
Its value is 3.9%.

What about the “% Sirolimus dissolved 70° C.” value ([1]; vehicle Monomuls 90 L12/Rylo MD50 (10:90)) of the same molecule?
The value was 2.5%.

What about the “% Sirolimus dissolved 70° C.” value ([1]; vehicle PEG 6000) of the same molecule?
Its value is 1.5%.

And the “% Sirolimus dissolved 70° C.” value ([1]; vehicle PEG 6000/Poloxamer 188 (70:30))?
Its value is 2.4%.

And the “% Sirolimus dissolved 70° C.” value ([1]; vehicle Poloxamer 188)?
Its value is 1.0%.

And the “% Sirolimus dissolved 70° C.” value ([1]; vehicle Rylo MD50)?
Its value is 1.5%.

What about the “mean time-to-peak concentration (tmax)” value ([2]; multiple oral doses in renal transplant recipients) of the same molecule?
The value was “approximately 2 hours”.

And the “mean time-to-peak concentration (tmax)” value ([2]; oral, single dose in healthy subjects)?
The value was “approximately 1 hour”.
